Values of other authors as cited in patent publication EP3954777A1, “METHOD FOR ENZYMATIC DEGRADATION OF BITTER COMPOUNDS IN AGRO-INDUSTRIAL BY-PRODUCTS” (SternEnzym GmbH & Co. KG, priority 2020, dated 2022).

Tested on: human test persons
Settings: bitter taste

Question: With “kaempferol 3-O-(2"'-O-sinapoyl-β-sophoroside)” as the substance, how does the “level that, on average, can be tasted by humans” value (average (Hald et al., 2019)) read?
Answer: 3.4 µmol/L

Question: What about the “lowest level detectable by human test persons” value (lowest (Hald et al., 2019)) of the same substance?
Answer: 1.7 µmol/L
